The test system of test [1] is Botrytis cinerea (gray mold). The experiment in a line: Plant pathology screen (Test 1), gray mold on grape berries. To be noted: read-out: GRAY MOLD control rating.
Description: This screen was used to evaluate the efficacy of the present compounds against a variety of different organisms that cause plant diseases.
(§1) The test compounds were formulated for application by dissolving 50 mg of the compound into 1.25 ml of solvent. The solvent was prepared by mixing 50 ml of "Tween 20" (polyoxyethylene (20) sorbitan monolaurate emulsifier) with 475 ml of acetone and 475 ml of ethanol. The solvent/compound solution was diluted to 125 ml with deionized water. The resulting formulation contains 400 ppm test chemical. Lower concentrations were obtained by serial dilution with the solvent-surfactant mixture.
(§2) The formulated test compounds were applied by foliar spray. The following plant pathogens and their corresponding plants were employed.
(§3) The formulated technical compounds were sprayed on all foliar surfaces of the host plants (or cut berry) to past run-off. Single pots of each host plant were placed on raised, revolving pedestals in a fume hood. Test solutions were sprayed on all foliar surfaces. All treatments were allowed to dry and the plants were inoculated with the appropriate pathogens within 2-4 hours.
(§4) The effectiveness of test compounds in controlling disease was rated using the following scale.
The subject of test [2] is Pseudoperonospora cubensis (downy mildew). Briefly: Plant pathology screen (Test 1), downy mildew on squash. To be noted: foliar, read-out: DOWN MDEW control rating.
Description: as §1, §2, §3, §4
For test [3], the system named is southern armyworm (Spodopetra eridania Cramer). The experiment in a line: Mite/insect screen, Southern armyworm. To be noted: Spodoptera eridania, sprayed leaves, read-out: SAW results (percent mortality); for mortality at 200 ppm: rate 200 ppm; for mortality at 400 ppm: rate 400 ppm. The format is in vivo. The procedure, abridged:
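Compounds in acetone/alcohol with Toximul emulsifiers, diluted in water, sprayed to runoff on squash leaves at 10 psi and dried 1 h. Excised treated leaves fed to southern armyworm larvae in Petri dishes; percent mortality scored after standard exposure.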

Test [4] deals with Twospotted spider mites (Tetranychus urticae Koch). Briefly: Mite/insect screen, twospotted spider mites. The format is in vivo. To be noted: Tetranychus urticae, sprayed leaves, read-out: SM results (percent mortality); for mortality at 200 ppm: rate 200 ppm; for mortality at 400 ppm: rate 400 ppm. A digest of the protocol: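 Squash cotyledons infested with mites were sprayed to runoff at 10 psi with compound in acetone/alcohol plus emulsifiers, diluted in water to the stated concentrations. Percent mortality and phytotoxicity were scored after standard exposure periods.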

Test [5] deals with Pyricularia oryzae (rice blast). The experiment in a line: whole plant or invertebrate. Format: in vivo. Particulars: foliar, read-out: RICE BLAST control rating.
The test system of test [6] is Puccinia recondita tritici (leaf rust). Briefly: Plant pathology screen (Test 1), leaf rust on wheat. Particulars: in Triticum aestivum, foliar, read-out: LEAF RUST control rating.
Test [7] has as its system Southern corn rootworm (Diabrotica undecimpuctata howardi Barber). Briefly: Mite/insect screen, corn rootworm. Format: in vivo. To be noted: Diabrotica, soil, read-out: CRW results (percent mortality); for mortality at 12 ppm: CRW rate 12.00 ppm; for mortality at 24 ppm: CRW rate 24.00 ppm. The procedure, abridged:
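Compound in acetone/alcohol with emulsifiers, diluted with water; 1 mL applied to 15 g dry sandy soil holding a presoaked corn seed. After 6–12 h drying, five 2-3 instar larvae added, held at 23° C; percent mortality and phytotoxicity scored after standard exposure periods.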

Test [8] relates to Erysiphe graminis tritici (powdery mildew). The experiment in a line: Plant pathology screen (Test 1), powdery mildew on wheat. Particulars: Blumeria graminis, in Triticum aestivum, foliar, read-out: POWD MDEW control rating.
Test [9] concerns melon aphids (Aphis gossvpii Glover). The experiment in a line: Mite/insect screen, melon aphids. Format: in vivo. To be noted: Aphis, sprayed leaves, read-out: MA results (percent mortality); for mortality at 200 ppm: rate 200 ppm; for mortality at 400 ppm: rate 400 ppm. The procedure, abridged: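 Aphids established on squash cotyledons were sprayed to runoff with compound in acetone/alcohol with sulfonate/nonionic emulsifiers, diluted in water to test concentrations. Leaves dried 1 h. Percent mortality scored after standard exposure periods.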

As to `Cc1oc2ncnc(Oc3cccc(C(F)(F)F)c3)c2c1C` [Example 63, 5,6-dimethyl-4-[3-(trifluoromethyl)phenoxy]furo[2,3-d]pyrimidine], the pest or weed control at 400 µg/mL was in the range of 0 to 19% in test [1]; 20 to 89% in [2]; 0 to 19% in test [5]; 0 to 19% in test [6]; 0 to 19% in [8]. Further, the mortality at 200 ppm in test [3], in [4] and in test [9] was 0% in each case. Besides, the mortality at 400 ppm in test [3] was found to be 0%; in [4], 50%; in [9], 80%. In addition, the mortality at 12 ppm in test [7] amounted to 0%. Moreover, the mortality at 24 ppm in test [7] was determined as 0%.
For the compound `Cc1oc2ncnc(Oc3ccccc3)c2c1C` [Example 64, 5,6-dimethyl-4-phenoxyfuro[2,3-d]pyrimidine], the pest or weed control at 400 µg/mL is 0 to 19% in [1]; 90 to 100% in test [2]; 0 to 19% in test [5]; 20 to 89% in [6]; 90 to 100% in test [8]. For the same compound, the mortality at 200 ppm in test [3], in test [4] and in test [9] was 0% throughout. For the same compound, the mortality at 400 ppm in test [3], in [4] and in test [9] was 0% throughout. Besides, in test [7], the mortality at 12 ppm amounted to 0%. Moreover, the mortality at 24 ppm in test [7] is 0%.
Turning to `COc1ccc(Oc2ncnc3oc(C)c(C)c23)cc1` [Example 65, 5,6-dimethyl-4-(4-methoxyphenoxy)furo[2,3-d]pyrimidine], the pest or weed control at 400 µg/mL in test [1] lay within 0 to 19%; in test [2], 0 to 19%; in [5] it was 0 to 19%; in [6], 0 to 19%; in [8] it was 20 to 89%. Moreover, the mortality at 200 ppm in test [3], in test [4] and in test [9] was 0% throughout. Besides, the mortality at 400 ppm in test [3], in test [4] and in [9] was 0% throughout. In addition, the mortality at 12 ppm in [7] was 0%. Also, in test [7], the mortality at 24 ppm turned out to be 0%.
Take `Cc1oc2ncnc(Oc3ccccc3F)c2c1C` [Example 66, 4-(2-fluorophenoxy)-5,6-dimethylfuro[2,3-d]pyrimidine]: the pest or weed control at 400 µg/mL was 0 to 19% in test [1]; 90 to 100% in [2]; 0 to 19% in test [5]; 20 to 89% in [6]; 90 to 100% in [8]. In addition, the mortality at 200 ppm in [3], in test [4] and in [9] was 0% throughout. The mortality at 400 ppm in [3], in [4] and in test [9] was 0% each time. For the same compound, the mortality at 12 ppm in test [7] is 0%. Further, the mortality at 24 ppm in [7] was 0%.
For `Cc1oc2ncnc(OCC(C)c3ccc(CC(C)C)cc3)c2c1C` (centres unmarked) [Example 67, 4-[2-[4-(2,2-dimethylethyl)phenyl]-2-methylethoxy]5,6-dimethylfuro[2,3-d]pyrimidine], the pest or weed control at 400 µg/mL in test [1] was in the range of 20 to 89%; in [2], 20 to 89%; in test [5], 90 to 100%; in [6], 20 to 89%; in test [8], 20 to 89%. In addition, the mortality at 200 ppm in test [3] came to 0%; in test [4], 100%; in test [9], 100%. The values for the mortality at 400 ppm in test [3], in [4] and in [9] were 0%, 100% and 100%, respectively. For the same compound, the mortality at 12 ppm in test [7] was found to be 0%. For the same compound, the mortality at 24 ppm in test [7] amounted to 0%.
On to `Cc1oc2ncnc(NCCc3ccc(OC(F)(F)F)cc3)c2c1C` [Example 68, 5,6-dimethyl-N-[2-[4-(trifluoromethoxy)phenyl]ethyl]furo[2,3-d]pyrimidin-4-amine], for which the pest or weed control at 400 µg/mL in test [1] fell in the range of 0 to 19%; in test [2], 90 to 100%; in test [5], 90 to 100%; in test [6], 20 to 89%; in test [8] it was 20 to 89%. The mortality at 400 ppm in [3] is 100%; in [4], 30%; in [9], 90%. Besides, the mortality at 24 ppm in test [7] worked out at 0%.
With `Cc1oc2ncnc(OCCc3ccc(OC(F)(F)F)cc3)c2c1C` [Example 69, 5,6-dimethyl-4-[2-[4-(trifluoromethoxy)phenyl]ethoxy]furo[2,3-d]pyrimidine], the pest or weed control at 400 µg/mL lay within 0 to 19% in [1]; 0 to 19% in test [2]; 20 to 89% in [5]; 20 to 89% in test [6]; 90 to 100% in test [8]. The mortality at 400 ppm in [3] amounted to 0%; in test [4], 90%; in [9], 90%. Besides, in [7], the mortality at 24 ppm amounted to 0%.
As for `Cc1oc2ncnc(OCCc3ccc4c(c3)OC(F)(F)O4)c2c1C` [Example 70], the pest or weed control at 400 µg/mL in test [1], in test [2], in test [5], in [6] and in test [8] was 0 to 19% each time. For the same compound, the mortality at 400 ppm in test [3], in test [4] and in test [9] was 0% each time. In addition, the mortality at 24 ppm in test [7] stood at 0%.
Take `CCCCCCOc1ccc(CC(CNc2ncnc3oc(C)c(C)c23)c2cccc3ccccc23)cc1` (centres unmarked) [Example 71, 5,6-dimethyl-N-[3-[4-(n-hexyloxy)phenyl]-2-(1-naphthyl)propyl]furo[2,3-d]pyrimidin-4-amine]: the pest or weed control at 400 µg/mL in [1], in [2], in test [5], in [6] and in [8] was 0 to 19% in each case. The mortality at 400 ppm in [3], in test [4] and in test [9] was 0% throughout. Further, the mortality at 24 ppm in test [7] was 0%.
With `Cc1oc2ncnc(NCCC3=CCCCC3)c2c1C` [Example 72, 5,6-dimethyl-N-[2-(1-cyclohexenyl)ethyl]furo[2,3-d]pyrimidin-4-amine], the pest or weed control at 400 µg/mL lay in the range of 0 to 19% in test [1]; 90 to 100% in test [2]; 0 to 19% in test [5]; 90 to 100% in test [6]; 20 to 89% in test [8]. Further, the mortality at 400 ppm is 60% in test [3], 0% in [4] and 100% in test [9]. Also, the mortality at 24 ppm in test [7] came to 0%.

The mortality is the percentage killed.

The record behind these values is patent US5486516A, “Furopyrimidine derivatives” (DowElanco, priority 1993, dated 1996).
